The experiment relates to HCV 1b-377-neo replicon cells. Description: HCV replicon assay, HCV 1b-377-neo replicon cells (1b FRET). It is filed as cell-based, Hepatitis C virus genotype 1b. Conditions: HCV 1b-377-neo replicon cells, HCV 1b genotype, read-out: EC50 range against HCV 1b (Table 2, Range). In outline: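 FRET-based replicon assay in HCV 1b-377-neo cells, including a comparison line carrying the NS5A Y2065H mutation that confers resistance to a reference compound.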
In general terms: In antiviral work, replicon cells carry a viral genome segment that copies itself.

By EC50 is commonly meant the concentration giving half of the maximal effect.

Like-named read-outs stand apart in the source and are kept apart here.

With `COC(=O)N[C@@H](C(=O)N1CCC[C@H]1c1ncc(-c2ccc(-c3ccc(-c4cnc([C@@H]5CCCN5C(=O)[C@H](NC(=O)OC)C5CC5)[nH]4)cc3)cc2)[nH]1)C1CC1` [Example M22, dimethyl (4,4′-biphenyldiylbis(1H-imidazole-5,2-diyl(2S)-2,1-pyrrolidinediyl((1R)-1-cyclopropyl-2-oxo-2,1-ethanediyl)))biscarbamate], the EC50 (Hepatitis C virus) fell in the range of 1000 to 10000 nM.

For the molecule `COC(=O)N[C@H](C(=O)N1CCC[C@H]1c1ncc(-c2ccc(-c3ccc(-c4cnc([C@@H]5CCCN5C(=O)[C@@H](NC(=O)OC)C5CC5)[nH]4)cc3)cc2)[nH]1)C1CC1` [Example M23, dimethyl (4,4′-biphenyldiylbis(1H-imidazole-5,2-diyl(2S)-2,1-pyrrolidinediyl((1S)-1-cyclopropyl-2-oxo-2,1-ethanediyl)))biscarbamate], the EC50 (Hepatitis C virus) was 1 to 99 nM. Still for that read-out and setting: as for `COC(=O)N[C@H](C(=O)N1CCC[C@H]1c1ncc(-c2ccc(-c3ccc(-c4cnc([C@@H]5CCCN5C(=O)[C@@H](NC(=O)OC)C(C)(C)C)[nH]4)cc3)cc2)[nH]1)C(C)(C)C` [Example M24, methyl ((1S)-1-(((2S)-2-(5-(4′-(2-((2S)-1-((2S)-2-((methoxycarbonyl)amino)-3,3-dimethylbutanoyl)-2-pyrrolidinyl)-1H-imidazol-5-yl)-4-biphenylyl)-1H-imidazol-2-yl)-1-pyrrolidinyl)carbonyl)-2,2-dimethylpropyl)carbamate], the figure is 1 to 99 nM.

As for `C=CC[C@H](NC(=O)OC)C(=O)N1CCC[C@H]1c1ncc(-c2ccc(-c3ccc(-c4cnc([C@@H]5CCCN5C(=O)[C@H](CC=C)NC(=O)OC)[nH]4)cc3)cc2)[nH]1` [Example M25, dimethyl (4,4′-biphenyldiylbis(1H-imidazole-5,2-diyl(2S)-2,1-pyrrolidinediyl((4S)-5-oxo-1-pentene-5,4-diyl)))biscarbamate], the concentration for a half-maximal effect (EC50) (Hepatitis C virus) fell in the range of 1 to 99 nM. Same read-out and setting: for `COC[C@H](NC(=O)OC)C(=O)N1CCC[C@H]1c1ncc(-c2ccc(-c3ccc(-c4cnc([C@@H]5CCCN5C(=O)[C@H](COC)NC(=O)OC)[nH]4)cc3)cc2)[nH]1` [Example M26, methyl ((1S)-2-((2S)-2-(5-(4′-(2-((2S)-1-(N-(methoxycarbonyl)-O-methyl-L-seryl)-2-pyrrolidinyl)-1H-imidazol-5-yl)-4-biphenylyl)-1H-imidazol-2-yl)-1-pyrrolidinyl)-1-(methoxymethyl)-2-oxoethyl)carbamate] the value was 100 to 999 nM. Regarding `CCC[C@H](NC(=O)OC)C(=O)N1CCC[C@H]1c1ncc(-c2ccc(-c3ccc(-c4cnc([C@@H]5CCCN5C(=O)[C@H](CCC)NC(=O)OC)[nH]4)cc3)cc2)[nH]1` [Example M27, methyl ((1S)-1-(((2S)-2-(5-(4′-(2-((2S)-1-((2S)-2-((methoxycarbonyl)amino)pentanoyl)-2-pyrroldinyl)-1H-imidazol-5-yl)-4-biphenylyl)-1H-imidazol-2-yl)-1-pyrrolidinyl)carbonyl)butyl)carbamate], the EC50 was in the range of 1 to 99 nM. Take `COC(=O)N[C@H](C(=O)N1CCC[C@@H]1c1ncc(-c2ccc(-c3ccc(-c4cnc([C@H]5CCCN5C(=O)[C@@H](NC(=O)OC)C(C)C)[nH]4)cc3)cc2)[nH]1)C(C)C` [Example M28, methyl ((1S)-1-(((2R)-2-(5-(4′-(2-((2R)-1-((2S)-2-((methoxycarbonyl)amino)-3-methylbutanoyl)-2-pyrrolidinyl)-1H-imidazol-5-yl)-4-biphenylyl)-1H-imidazol-2-yl)-1-pyrrolidinyl)carbonyl)-2-methylpropyl)carbamate]: the EC50 (Hepatitis C virus) lay in the range of 1000 to 10000 nM.

For the molecule `COC(=O)N[C@H](C(=O)N1CCC[C@@H]1c1ncc(-c2ccc(-c3ccc(-c4cnc([C@@H]5CCCN5C(=O)[C@@H](NC(=O)OC)C(C)C)[nH]4)cc3)cc2)[nH]1)C(C)C` [Example M28-2, methyl ((1S)-1-(((2S)-2-(5-(4′-(2-((2R)-1-((2S)-2-((methoxycarbonyl)amino)-3-methylbutanoyl)-2-pyrrolidinyl)-1H-imidazol-5-yl)-4-biphenylyl)-1H-imidazol-2-yl)-1-pyrrolidinyl)carbonyl)-2-methylpropyl)carbamate], the concentration for a half-maximal effect (EC50) (Hepatitis C virus) lay within 100 to 999 nM.
